Data: PMC10094158, “Discovery of a photoactivatable dimerized STING agonist based on the benzo[b]selenophene scaffold” (Chemical Science, 2023)

Experiments:
[1] = target: T1, hSTING^H232 (Stimulator of interferon genes) (Homo sapiens, UniProt Q86WV6, H232); test: SPR (KD […]); also ITC (KD […]), DSF and […] Å co-crystal structure; type: binding
T1 construct: gene STING1

[2] = target: T2, hSTING^HAQ (Stimulator of interferon genes) (Homo sapiens, UniProt Q86WV6, R71H/G230A/H232R/R293Q); test: thermal shift (DSF), ΔTm; type: binding
T2 construct: gene STING1
T2 sequence (Q86WV6 whole entry R71H/G230A/H232R/R293Q): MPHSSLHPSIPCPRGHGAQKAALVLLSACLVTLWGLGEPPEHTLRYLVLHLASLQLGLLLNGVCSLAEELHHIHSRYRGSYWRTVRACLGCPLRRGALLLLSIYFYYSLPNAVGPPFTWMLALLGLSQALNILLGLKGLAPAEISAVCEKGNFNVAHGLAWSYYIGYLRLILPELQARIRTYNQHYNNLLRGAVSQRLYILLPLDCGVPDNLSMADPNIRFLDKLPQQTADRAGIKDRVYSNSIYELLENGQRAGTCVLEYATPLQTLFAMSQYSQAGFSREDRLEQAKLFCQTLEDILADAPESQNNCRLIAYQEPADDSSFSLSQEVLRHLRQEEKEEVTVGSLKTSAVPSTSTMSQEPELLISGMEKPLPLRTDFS

T1 sequence (Q86WV6 whole entry, change not shown): as the sequence (Q86WV6 whole entry R71H/G230A/H232R/R293Q) above, with H71R, A230G, R232H, Q293R counted along it

COc1cc2[se]c(C(=O)CCC(=O)O)cc2cc1OCCCOc1cc2cc(C(=O)CCC(=O)O)[se]c2cc1OC [diBSP01]
Kd [1]: 49 nM | thermal shift (DSF), ΔTm [2]: 27.0 °C
